This is an account of results in ChEMBL document CHEMBL1201862, “PubChem BioAssay data set” (2004).

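Results reflect a 48-hour exposure of cells in 96-well plates to compound at five concentrations. Here, GI50 denotes the concentration required for 50% inhibition of growth.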 The source made the active and inactive calls. Cut-off read from the data, not from the text of the source: active = GI50 up to about 1.1 µM and inactive = higher.

Some test systems named below: HCT-116; SF-268; TK-10; M19-MEL; LXFL 529; RXF 631; XF498; DLD-1.
Common to all, as to test: NCI tumour cell line growth inhibition, 48 h

`Cc1ccc(S(=O)(=O)NCCSS(=O)(=O)c2ccc(C)cc2)cc1`: the GI50 in the experiment with HCT-116 was 15.1 µM (inactive); in the experiment with SF-268, 22.1 µM (inactive); in the experiment with TK-10 it was > 100 µM (inactive).
Consider `O=C1CCCC/C1=C1/SC(=N/c2ccccc2)/C(=N\c2ccccc2)N1c1ccccc1`, for which the GI50 in the experiment with HCT-116 was > 100 µM (inactive).
Turning to `O=c1c(-c2ccccc2)c(SCCN2CCOCC2)n(-c2ccccc2)c(=S)n1-c1ccccc1`, in the experiment on TK-10, the GI50 was 46.6 µM (inactive).
As to `CCNC(=S)NNC(=O)c1nsc2ccccc12`, the GI50 in the experiment on M19-MEL is 97.3 µM (inactive); in the experiment on LXFL 529, 53.3 µM (inactive); with HCT-116 it was 96.8 µM (inactive); in the experiment on SF-268 it was 81.5 µM (inactive); in the experiment with TK-10, > 100 µM (inactive).
Take `O=C(Nc1ccc([N+](=O)[O-])cc1)C(=O)C(C(=O)c1ccccc1F)C1OC(=O)c2ccccc21` (stereo unspecified): the GI50 in the experiment with RXF 631 was 26 µM (inactive); in the experiment on M19-MEL, 28.1 µM (inactive); in the experiment on LXFL 529, 33.7 µM (inactive); in the experiment on HCT-116 it was 31.6 µM (inactive); in the experiment with XF498, 70.3 µM (inactive); in the experiment with SF-268, 35 µM (inactive). Also, the GI50 in the experiment on TK-10 is > 100 µM (inactive); in the experiment with DLD-1, 40.6 µM (inactive).
Take `Nc1nc2ccc3ccccc3c2[nH]1`: the GI50 in the experiment on HCT-116, in the experiment with SF-268 and in the experiment with TK-10 was > 10 µM (inactive) in each case.
Turning to `CN(C)CCOc1cc2c(c3ccccc13)-c1ccccc1C2O` (stereo unspecified), the GI50 in the experiment with M19-MEL is 16.6 µM (inactive); in the experiment with HCT-116, 13.2 µM (inactive); with XF498, 12.9 µM (inactive); in the experiment with SF-268, 14.5 µM (inactive); in the experiment with DLD-1 it was 15.8 µM (inactive).
With `CS(C)(=O)=Nn1c(=O)n2n(c1=O)C1c3ccccc3C2c2ccccc21`, the GI50 in the experiment with TK-10 was > 100 µM (inactive).
Regarding `C1CSCCSCCSCCSC1`, the GI50 with HCT-116, with SF-268 and with TK-10 was > 100 µM (inactive) throughout.
For the compound `O=C(NNC(=S)Nc1ccccc1)c1nsc2ccccc12`, the GI50 is 28.9 µM (inactive) with M19-MEL; 28.1 µM (inactive) in the experiment on LXFL 529; 25.2 µM (inactive) in the experiment on HCT-116; 30.1 µM (inactive) in the experiment with SF-268; 41.3 µM (inactive) in the experiment on TK-10.
In the case of `CSC1SCC2C(=O)N(C)C(C(C)C)C(=O)OCC(NC(=O)c3cnc4ccccc4n3)C(=O)NC(C)C(=O)N(C)C1C(=O)N(C)C(C(C)C)C(=O)OCC(NC(=O)c1cnc3ccccc3n1)C(=O)NC(C)C(=O)N2C` (stereo unspecified), the GI50 in the experiment on HCT-116 was 0.00885 µM (active); in the experiment on SF-268, 0.0075 µM (active); with TK-10, 0.00152 µM (active); with DLD-1, 0.0075 µM (active).
For `CN(C)C(=O)Oc1c(Br)cc(Br)cc1C(=O)OCc1ccccc1`, the GI50 in the experiment on M19-MEL is 20 µM (inactive); with HCT-116, 14.5 µM (inactive); in the experiment on XF498, 19.3 µM (inactive); in the experiment on SF-268 it was 35.6 µM (inactive); in the experiment on DLD-1, 25.4 µM (inactive).
For the compound `O=C(CCCn1cnc([N+](=O)[O-])n1)NCCn1ccnc1[N+](=O)[O-]`, the GI50 in the experiment on SF-268 and with TK-10 was > 100 µM (inactive) throughout.
As to `COc1cc([C@@H]2c3cc4c(cc3[C@H](O)[C@H]3COC(=O)[C@H]23)OCO4)cc(OC)c1OC` [PODOFILOX], the GI50 with LXFL 529 is 0.01 µM (active); in the experiment on HCT-116, < 0.005 µM (active); in the experiment with XF498, 0.0354 µM (active); in the experiment on SF-268, < 0.005 µM (active); in the experiment with DLD-1, 0.0243 µM (active).
